According to article PMC2678990, “Stilbene glycosides are natural product inhibitors of FGF-2-induced angiogenesis” (BMC Cell Biology, 2009):

Columns and labels:
human umbilical vein ECs = tested on: human umbilical vein ECs; set-up: method as in PMID 11092574; conditions: cited from earlier work
HDMEC [1] = assay: Toxicity: MTT and active caspase-3 assays; type: cell-based, human; conditions: HDMEC; MTT 72 h and active caspase-3 24 h; staurosporine positive control
Experimental: (§1) Stilbene glycoside toxicity was determined using the MTT and active caspase-3 assays. BAECs or HDMECs (7.5 × 10^3) were seeded in a 96 well plate and incubated for 4 h to allow cell adhesion. The test compound or staurosporine (1 μM), an inducer of active caspase-3 and therefore of apoptosis was added to the wells. Control cells were treated with PBS and the plate was incubated at room temperature for 72 hours. MTT reagent (10 μl) was added followed by incubation at room temperature for 2–4 h. When a purple precipitate was visible, detergent reagent (100 μl) was added to the plates and incubated at room temperature for 2 h in the dark. Absorbance was measured at 570 nm using a microplate reader.
In the apoptosis assay, HDMECs or BAEC (4 × 10^4/ml) in complete medium were added to the chambers slide and allowed to adhere for 24 h. The test compound (X μM) or staurosporine (1 μM) were added to all wells except control (PBS) and incubated for 24 hours. Wells treated with staurosporine were immediately washed (PBS) and fixed (4% paraformaldehyde) when cell morphology became round (2–4 h). After washing and fixing, cells were permeablized (0.1% Triton X-100; 10 min), washed (× 5~5 min each), air dried and blocked with 1% BSA in 1:50 TBS-Tween for 1 h at room temperature. Cells were incubated with goat anti-active caspase-3 (R&D system, UK; 1% BSA in TBS-Tween) for 1 h. […]

BAEC [2] = assay: Toxicity: MTT and active caspase-3 assays; type: cell-based, bovine; conditions: MTT 72 h and active caspase-3 24 h, staurosporine 1.0-1.4 μM positive control
Experimental: Figure 2 The effect of compounds 1 and 2 on BAEC viability. The cytotoxic effect was determined using (A) The MTT assay; cells (7.5 × 10^3) were incubated with the test compounds or with staurosporine (1.4 μM) an inducer of active caspase-3 and of apoptosis for 72 h and MTT added. The absorbance was read at 570 nm. (B) Active-caspase-3 apoptosis assay: cells (4.0 × 10^4/ml) were incubated with the test compounds or with staurosporine (1.0 μM, 24 h) and stained with anti-active caspase-3 as described below. Experiments were performed in triplicate. Representative immunofluorescence photomicrographs for BAEC were taken as described below. A group of apoptotic cells are highlighted in II.
as §1, with “reader. […]” for “reader.”

BAEC [3] = assay: FGF-2-induced tube formation in Matrigel; type: cell-based, bovine; conditions: FGF-2 25 ng/ml
Experimental: (§2) Cells (1.0 × 10^6/ml) were mixed with an equal volume of Matrigel (Becton -Dickinson, Oxford, UK; prepared according to the supplier's instructions) at 4°C. Aliquots (80 μl) were added to the wells of a 48-well plate and allowed to polymerise (1 h) then 500 μl of 15% FCS containing FGF-2 (25 ng/ml; or other growth factors), with or without test compounds was added. The cells were incubated for 24 h at 37°C then fixed in 4% paraformaldehyde (5 min), washed in cold ethanol and the plate air dried. Cells were stained with Geimsa (30 s), air dried and photographed. Ten random fields were selected and the number of closed tubes counted.

[4] = tested on: chick chorioallantoic membrane; assay: Chick chorioallantoic membrane (CAM) assay; type: in vivo; conditions: FGF-2 (25 ng) alone
Experimental: The angiogenic activity of test compounds was determined using the semi-quantitative chick chorioallantoic assay (CAM) as described previously. To expose the CAM a window was created in the shells of 4 day-old chicken eggs. […] […] This approach enabled calculation of an accumulated response in each group. To photograph the membrane, 2 cm^3 of a 50% emulsion of aqueous paraffin oil containing 2% Tween-80 was injected at the site of application and photographed using a Leitz dissecting microscope. Each experiment was performed five times and statistical significance was determined by the Mann-Whitney U test and the data is expressed as a median value (m).

HDMEC [5] = assay: FGF-2 invasion in Matrigel; type: cell-based, human; conditions: FGF-2 treated
HDMEC [6] = assay: FGF-2-induced tube formation in Matrigel; type: cell-based, human; conditions: FGF-2 25 ng/ml
Experimental: as §2

phospho-ERK1/2 in BAEC = assay: Western blot of ERK1/2 phosphorylation; type: cell-based, bovine; conditions: FGF-2 addition
Experimental: Figure 9 (A) Western blots of p-ERK-1 and -2 were performed on BAEC treated with compound 1 as described below. (B) The bar charts show relative protein expression compared to the control given an arbitrary value of 1.0. All experiments were performed at least twice and a representative example is shown. Lane 1 control, lane 2 FGF-2 (25 ng/ml), lane 3 compound 1 ([…]), lane 4 compound 1 (14.3 μM) + FGF-2, lane 5 compound 1 (28.6 μM), lane 6 compound 1 (28.6 μM) + FGF-2.
The method is described in detail elsewhere. In brief, cells were lysed in RIPA buffer, protein concentration determined using the Biorad assay, and approximately 20 μg aliquots separated by 12% SDS-PAGE, electroblotted onto nitrocellulose filters (Hoefer, San Francisco, Ca, USA), blocked overnight with 1% BSA in TBS-Tween and incubated for 4 h at RT with characterised antibodies to phosphor-ERK1/2 (AutogenBioclear, mouse monoclonal, 1:1000). α-Actin (Sigma, UK; 1:1000) was used as a loading control. Filters were washed in TBS-Tween and stained with antibodies to peroxidase-conjugated secondary antibody. Proteins were detected with the ECL system (Amersham, UK). Protein expression was estimated spectrophotometrically from band intensity. Results are semi-quantitative and given a numerical value compared to the weakest observed band assigned an arbitrary value of 1.0. […]

BAEC [7] = assay: FGF-2 invasion in Matrigel; type: cell-based, bovine; conditions: FGF-2 treated
Experimental: The effect of the test compounds on cell invasion was investigated using a Transwell Boyden chamber system coated with reconstituted growth factor-depleted Matrigel. […] Representative photomicrographs for the effect of compound 1 are shown (Figure 7B).
Figure 7 The effect of compounds 1 (AI) and 2 (AII) on BAEC invasion into a Matrigel layer was studied using the chemoinvasion assay described below. Cells (1.7 × 10^4) were added to the Matrigel coated upper Boyden chamber and the compounds with or without FGF-2 added to the lower chamber. Cell invasion was measured after 24 h and assessed as described below. […] Results are the mean of three experiments. (B) Representative photomicrographs are shown for the effect of compound 1 on BAEC (original magnification × 20).
The procedure described above was repeated and wells having a uniform network of tubes were used to assess invasion into a second layer of Matrigel. Matrigel (100 μl), with and without the test compounds was added to the cells and allowed to polymerise (1 h at 37°C). FCS (15%) was added and the cells incubated for 24–72 h when tube growth into the upper layer was measured as described above.

Oc1ccc(/C=C/c2cc(O)cc(O)c2)cc1 [resveratrol]
Concentrations inhibiting differentiation into capillary-like structures (human umbilical vein ECs): 0.1 to 1 mM

CN[C@@H]1C[C@H]2O[C@@](C)([C@@H]1OC)n1c3ccccc3c3c4c(c5c6ccccc6n2c5c31)C(=O)NC4 [staurosporine, reference compound]
Cytotoxic effect (HDMEC [1]): significant cytotoxicity | Cytotoxic effect (BAEC [2]): significant cytotoxicity

FGF-2: fibroblast growth factor-2, pro-angiogenic growth factor used as stimulus
Increase in differentiation into capillary-like structures (BAEC [3]): approximately 4.0 fold | Degree of angiogenesis (m), median score [4]: 3 | Increase in migration into a second layer of Matrigel (HDMEC [5]): 3.0 fold | Increase in differentiation into capillary-like structures (HDMEC [6]): approximately 4.0 fold | Increase in ERK1/2 phosphorylation compared to the control (phospho-ERK1/2 in BAEC): 50% | Increase in migration into a second layer of Matrigel (BAEC [7]): 3.2 fold
